From patent US12637461B2, “Compounds for the activation of AMPK” (PFIZER INC., priority 2022, dated 2026) come the findings set out here.

The assay has as its target T1, human AMPK α2β2γ3 (Homo sapiens, UniProt O43741+P54646+Q9UGI9).
T1 construct: expressed in transfected cells; host or cells: HEK293AD cells, MaxCyte bulk electroporation
Description: Primary cellular assay: γ3 associated phospho-Thr172 AMPK detection (custom pAMPK Surefire AlphaLISA) in α2β2γ3 bulk transiently transfected HEK293 cells. It counts as cell-based. Particulars: activation of human AMPK α2β2γ3 (γ3 pThr172 AMPK signal) in transiently transfected HEK293 cells, 20 minutes compound incubation; for Emax: 20 min, read-out: Assay GMean Asy. Max (%); for EC50: geometric mean EC50, read-out: Assay GMean EC50. Summed up:
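Transiently co-transfected (α2/β2/γ3 plasmids, electroporation) HEK293AD cells, plated 2 days in low-glucose DMEM+10% FBS, treated 20 min with compounds (11-point half-log dilutions). Lysates read by modified AlphaLISA capturing γ3 with pThr172 antibody detection. % effect relative to 30 μM HPE and DMSO; EC50 and Emax from curve fit.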
Background: In Alpha technology, singlet oxygen from a donor bead excites a nearby acceptor bead.

Where [1] appears, read: geometric mean of the asymptotic max.

T1 sequence (P54646 whole entry): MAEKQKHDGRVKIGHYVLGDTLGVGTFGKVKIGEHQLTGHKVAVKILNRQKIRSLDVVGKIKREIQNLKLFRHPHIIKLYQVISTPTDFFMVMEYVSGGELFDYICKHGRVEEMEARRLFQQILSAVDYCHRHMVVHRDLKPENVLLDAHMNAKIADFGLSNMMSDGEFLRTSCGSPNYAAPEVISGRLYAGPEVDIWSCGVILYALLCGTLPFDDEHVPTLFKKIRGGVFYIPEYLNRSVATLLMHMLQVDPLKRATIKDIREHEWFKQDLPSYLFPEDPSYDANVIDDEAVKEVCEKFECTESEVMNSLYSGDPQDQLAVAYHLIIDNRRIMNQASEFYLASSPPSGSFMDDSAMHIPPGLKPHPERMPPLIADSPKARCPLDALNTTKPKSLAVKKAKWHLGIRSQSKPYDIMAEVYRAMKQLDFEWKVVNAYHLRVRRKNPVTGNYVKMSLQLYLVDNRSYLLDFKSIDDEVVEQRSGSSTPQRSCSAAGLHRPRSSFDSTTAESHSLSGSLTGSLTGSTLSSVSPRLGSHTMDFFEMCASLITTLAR
T1 sequence (O43741 whole entry): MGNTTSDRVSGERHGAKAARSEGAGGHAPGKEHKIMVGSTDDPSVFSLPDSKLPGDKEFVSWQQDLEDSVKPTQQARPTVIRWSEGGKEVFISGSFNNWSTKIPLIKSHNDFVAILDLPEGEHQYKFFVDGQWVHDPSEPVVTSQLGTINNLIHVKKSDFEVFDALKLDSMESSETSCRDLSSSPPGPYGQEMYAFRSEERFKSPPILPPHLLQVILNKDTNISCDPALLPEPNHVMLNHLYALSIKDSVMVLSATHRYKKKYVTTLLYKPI
T1 sequence (Q9UGI9 whole entry): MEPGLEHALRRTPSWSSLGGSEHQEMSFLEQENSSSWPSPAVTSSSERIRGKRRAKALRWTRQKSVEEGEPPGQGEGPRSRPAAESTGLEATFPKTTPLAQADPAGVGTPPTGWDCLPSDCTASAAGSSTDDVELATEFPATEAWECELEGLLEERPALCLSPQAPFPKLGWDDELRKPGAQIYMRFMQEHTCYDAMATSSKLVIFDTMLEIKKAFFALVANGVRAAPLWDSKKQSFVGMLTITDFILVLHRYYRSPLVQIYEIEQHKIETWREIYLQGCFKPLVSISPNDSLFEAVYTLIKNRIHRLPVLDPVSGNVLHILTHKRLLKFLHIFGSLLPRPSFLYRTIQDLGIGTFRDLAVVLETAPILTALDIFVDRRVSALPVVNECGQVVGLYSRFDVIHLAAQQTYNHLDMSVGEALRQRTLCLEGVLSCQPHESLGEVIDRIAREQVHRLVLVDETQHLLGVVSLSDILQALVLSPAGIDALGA

For orientation: EC50 means the concentration that produces a half-maximal response. `CC1(c2cccc(Cl)c2F)CN(c2ncccc2F)C(=O)c2cnc(NC3CN(C(=O)N4CC5CC4C5)C3)nc21` (stereo not drawn) [compound 89, 2-{[1-(2-azabicyclo[2.1.1]hexane-2-carbonyl)azetidin-3-yl]amino}-8-(3-chloro-2-fluorophenyl)-6-(3-fluoropyridin-2-yl)-8-methyl-7,8-dihydropyrido[4,3-d]pyrimidin-5(6H)-one,from P13 (ENANT-2)]: the half-maximal effective concentration (EC50) stood at 152 nM. In addition, the Emax under setting [1] turned out to be 148%.
In the same order, the values of `CN(C)C(=O)CN1CC(Nc2ccc3c(c2F)C(C)(c2cccc(Cl)c2F)CN(c2nn(C)cc2F)C3=O)C1` (stereo not drawn) [compound 90, 2-(3-{[4-(3-chloro-2-fluorophenyl)-5-fluoro-2-(4-fluoro-1-methyl-1H-pyrazol-3-yl)-4-methyl-1-oxo-1,2,3,4-tetrahydroisoquinolin-6-yl]amino}azetidin-1-yl)-N,N-dimethylacetamide, from P18 (ENANT-2)] are 147 nM and 120%.
For `Cn1cc(F)c(N2CC(C)(c3cccc(Cl)c3F)c3c(ccc(NC4CN(CC(=O)N5CCOCC5)C4)c3F)C2=O)n1` (stereo not drawn) [compound 91, 4-(3-chloro-2-fluorophenyl)-5-fluoro-2-(4-fluoro-1-methyl-1H-pyrazol-3-yl)-4-methyl-6-({1-[2-(morpholin-4-yl)-2-oxoethyl]azetidin-3-yl}amino)-3,4-dihydroisoquinolin-1(2H)-one,from P18 (ENANT-2)], in that order: 168 nM and 99.7%.
Turning to `Cn1cc(F)c(N2CC(C)(c3cccc(Cl)c3F)c3c(ccc(NC4CN(CC(=O)N5CCC5)C4)c3F)C2=O)n1` (stereo not drawn) [compound 92, 6-({1-[2-(azetidin-1-yl)-2-oxoethyl]azetidin-3-yl}amino)-4-(3-chloro-2-fluorophenyl)-5-fluoro-2-(4-fluoro-1-methyl-1H-pyrazol-3-yl)-4-methyl-3,4-dihydroisoquinolin-1(2H)-one, from P18 (ENANT-2)], the 50% effective concentration (EC50) was 58.9 nM. Also, the “Assay GMean Asy. Max (%)” value under setting [1] is 109%.
Take `C[C@]1(c2cccc(Cl)c2F)CN(c2cc(N)ccn2)C(=O)c2cnc(NC3CN(C(=O)[C@@H]4C[C@@H]4F)C3)c(F)c21` [compound 93, (4R)-2-(4-aminopyridin-2-yl)-4-(3-chloro-2-fluorophenyl)-5-fluoro-6-({1-[(1S,2S)-2-fluorocyclopropane-1-carbonyl]azetidin-3-yl}amino)-4-methyl-3,4-dihydro-2,7-naphthyridin-1(2H)-one]: the concentration giving a half-maximal response (EC50) is 65.3 nM. Moreover, under setting [1], the Emax amounted to 57.5%.
With `Cn1cnc(N2C[C@](C)(c3cccc(Cl)c3F)c3c(cnc(NC4CN(C(=O)[C@@H]5C[C@@H]5F)C4)c3F)C2=O)c1` [compound 94, (4R)-4-(3-chloro-2-fluorophenyl)-5-fluoro-6-({1-[(1S,2S)-2-fluorocyclopropane-1-carbonyl]azetidin-3-yl}amino)-4-methyl-2-(1-methyl-1H-imidazol-4-yl)-3,4-dihydro-2,7-naphthyridin-1(2H)-one], the concentration for a half-maximal effect (EC50) worked out at 212 nM. In addition, under setting [1], the Emax came out at 50.3%.
Turning to `Cn1cc(F)c(N2C[C@](C)(c3cccc(Cl)c3F)c3c(cnc(NC4CN(C(=O)[C@H]5C[C@H]5F)C4)c3F)C2=O)n1` [compound 99, (4R)-4-(3-chloro-2-fluorophenyl)-5-fluoro-6-({1-[(1R,2R)-2-fluorocyclopropane-1-carbonyl]azetidin-3-yl}amino)-2-(4-fluoro-1-methyl-1H-pyrazol-3-yl)-4-methyl-3,4-dihydro-2,7-naphthyridin-1(2H)-one], the EC50 amounted to 70.2 nM. In addition, the Emax under setting [1] came to 49.7%.
With `C[C@]1(c2cccc(Cl)c2F)CN(c2ncccc2F)C(=O)c2cnc(NC3CN(C(=O)N4CCN5CC(F)(F)C[C@@H]5C4)C3)c(F)c21` [compound 100, (4R)-4-(3-chloro-2-fluorophenyl)-6-({1-[(8aR)-7,7-difluorohexahydropyrrolo[1,2-a]pyrazine-2(1H)-carbonyl]azetidin-3-yl}amino)-5-fluoro-2-(3-fluoropyridin-2-yl)-4-methyl-3,4-dihydro-2,7-naphthyridin-1(2H)-one], the 50% effective concentration (EC50) was determined as 11.6 nM. Besides, under setting [1], the Emax stood at 22.8%.
For `Cn1cc(F)c(N2CC(C)(c3ccc(F)c(Cl)c3F)c3c(cnc(NC4CN(C(=O)C(C)(C)O)C4)c3F)C2=O)n1` (stereo not drawn) [compound 101, 4-(3-chloro-2,4-difluorophenyl)-5-fluoro-2-(4-fluoro-1-methyl-1H-pyrazol-3-yl)-6-{[1-(2-hydroxy-2-methylpropanoyl)azetidin-3-yl]amino}-4-methyl-3,4-dihydro-2,7-naphthyridin-1(2H)-one, from P3 (ENANT-2)], the concentration giving a half-maximal response (EC50) was 135 nM. Besides, under setting [1], the Emax turned out to be 108%.
In the same order, the values of `Cc1c(F)ccc(C2(C)CN(c3ncccc3F)C(=O)c3cnc(NC4CN(C(=O)C5(O)CC5)C4)c(F)c32)c1F` (stereo not drawn) [compound 106, 4-(2,4-difluoro-3-methylphenyl)-5-fluoro-2-(3-fluoropyridin-2-yl)-6-{[1-(1-hydroxycyclopropane-1-carbonyl)azetidin-3-yl]amino}-4-methyl-3,4-dihydro-2,7-naphthyridin-1(2H)-one, from P5 (ENANT-2)] are 33.9 nM and 70.5%.
For `CC1(c2cccc(F)c2F)CN(c2ncccc2F)C(=O)c2cnc(NC3CN(C(=O)C4(O)CC4)C3)c(F)c21` (stereo not drawn) [compound 108, 4-(2,3-difluorophenyl)-5-fluoro-2-(3-fluoropyridin-2-yl)-6-{[1-(1-hydroxycyclopropane-1-carbonyl)azetidin-3-yl]amino}-4-methyl-3,4-dihydro-2,7-naphthyridin-1(2H)-one, from P7 (ENANT-2)], in that order: 123 nM and 76.8%.
In the same order, the values of `CN(C)C(=O)CN1CCC(Nc2ncc3c(c2F)C(C)(c2cccc(Cl)c2F)CN(c2nn(C)cc2F)C3=O)C1` [compound 110, 2-[(3R)-3-{[5-(3-chloro-2-fluorophenyl)-4-fluoro-7-(4-fluoro-1-methyl-1H-pyrazol-3-yl)-5-methyl-8-oxo-5,6,7,8-tetrahydro-2,7-naphthyridin-3-yl]amino}pyrrolidin-1-yl]-N,N-dimethylacetamide, from P9 (DIAST-2)] are 266 nM and 63.2%.
